Laboratory results published in patent US10780101B2, “Amide derivatives of squalamine for the treatment of infections” (VIRBAC, priority 2016, dated 2020).
Values after ≈ are worked out from the molar mass of the structure shown.

Legend:
[1] = test system: S. aureus Human ATCC 25923; assay: MIC determination, S. aureus human ATCC 25923; format: cell-based; details: Staphylococcus aureus, ATCC25923; Gram-positive; Mueller-Hinton medium, 24 h at 37° C.
Experimental: (§1) A negative control (2 mL of sterile culture medium)
(§2) A positive control (1940 μL of culture medium+40 μL of DMSO+20 μL of the bacterial suspension) from a thawed biological strain (the biological strains are stored at −80° C. in glycerol).
(§3) The tubes were incubated at 37° C. for 24 hours at 100 rpm.
(§4) The microorganisms were handled under a type L2 laboratory fume cupboard and, before any handling, a UV cycle was programmed and only sterile material was used. […] The chemical compounds to be tested were prepared in a DMSO/methanol mixture (50/50) at a concentration of 5 mg/mL.
(§5) After 24 hours of incubation, a measurement of the optical density was taken using a spectrophotometer at 600 nm, collecting 100 μL of the bacterial suspension diluted in 900 μL of the sterile culture medium. This test required the use of a 96-well plate and the required volume of the microbial suspension to be seeded was calculated for an OD corresponding to a value equal to 0.01 in each well. In this plate, the first line corresponded to the negative control (195 μL of sterile culture medium in each well), the second line corresponded to the positive control (seeded culture medium supplemented with 2% of DMSO), and the third line was loaded twice with bacterial suspension; 8 μL of test product were placed in each well. Thereafter, a 0.5 cascade dilution was performed from this line.
(§6) The first column served as inhibition control. A sterile filter was then placed on the microplate, allowing the passage of gases but not of contaminants. The microplate was incubated at 37° C. under a humid atmosphere for 24 hours.
(§7) NB: The medium used is Mueller-Hinton (MH) medium for bacteria. All the tests were performed in duplicate.
(§8) After incubation, the filter was replaced with a transparent film, and an OD reading was then taken in an iEMS plate spectrophotometer at 620 nm. Calculation of the minimum inhibitory concentration (MIC) was performed.

S. aureus Animal (340) = assay: MIC determination, S. aureus animal (340); format: cell-based; details: Staphylococcus aureus; Gram-positive; Mueller-Hinton medium, 24 h at 37° C.
Experimental: as §1, §2, §3, §4, §5, §6, §7, §8

[2] = test system: P. aeruginosa Animal (1051575); assay: MIC determination, P. aeruginosa animal (1051575); format: cell-based; details: Pseudomonas aeruginosa; Gram-negative; Mueller-Hinton medium, 24 h at 37° C.
Experimental: as §1, §2, §3, §4, §5, §6, §7, §8

[3] = test system: P. aeruginosa Human ATCC 27853; assay: MIC determination, P. aeruginosa human ATCC 27853; format: cell-based; details: Pseudomonas aeruginosa, ATCC27853; Gram-negative; Mueller-Hinton medium, 24 h at 37° C.
Experimental: as §1, §2, §3, §4, §5, §6, §7, §8

E. coli Human ATCC 28922 = assay: MIC determination, E. coli human ATCC 28922; format: cell-based; details: Escherichia coli, ATCC28922; Gram-negative; Mueller-Hinton medium, 24 h at 37° C.
Experimental: as §1, §2, §3, §4, §5, §6, §7, §8

P. aeruginosa (1051575) = assay: Potentiation of doxycycline activity (combination MIC); format: cell-based, Pseudomonas aeruginosa; details: for MIC - P. aeruginosa (1051575): content of compound of formula (I) to restore the doxycycline activity (at 2 μg/mL): in presence of doxycycline 2 μg/mL, 24 hours at 37° C.
CHO-K1 cells = assay: WST1 cytotoxicity test on CHO-K1 cells; format: cell-based, Chinese hamster; details: Cricetulus griseus, CHO-K1, 24 h, read-out: IC50 (μg/mL) CHO
Experimental: Test WST1 was used to measure the cytotoxic activity of the products. This is a colorimetric test which makes it possible to measure the viability and the degree of cell proliferation. It is based on cleavage of the colorless tetrazolium salts WST-1 (4-[3-(4-iodophenyl)-2-(4-nitrophenyl)-2H-5-tetrazolio]-1,3-benzene disulfonate) with mitochondrial dehydrogenases to the yellow-colored formazan derivative, which may be quantified by spectrophotometry at 420-480 nm.
The WST1 test was performed on Chinese hamster ovary cells. The CHO-K1 cells (ATCC, USA) are kept in culture in McCoy's 5A medium supplemented with 10% fetal calf serum, 2 mM of L-glutamine and a mixture of penicillin-streptomycin (100 U/ml: 10 μg/ml). The culture is incubated at 37° C. under an atmosphere enriched in CO2 (5%), and subcultured every two days.
The cells are transferred into 96-well plates (25000 cells/mL) in whole McCoy's 5A medium, and maintained for 24 hours at 37° C. under a humid atmosphere enriched in CO2 (5%). Increasing concentrations of test products are added to the wells in double tests and 8 growth controls containing the cells in the medium alone are included in each series of tests. After 24 hours at 37° C. (5% CO2), the culture medium is removed, the cells are rinsed in phosphate buffer (PBS) and 50 μL of PBS containing 10% of reagent WST1 are added to each well. After 20 minutes of incubation at 37° C., the results are read by spectrophotometry at 450 nm.
The results are expressed in dose-response relationships, modeled by nonlinear regression analysis using the TableCurve software. The 50% inhibitory concentration (IC50) represents the concentration of product that is capable of reducing the cell viability by 50%.

E. coli Animal (1956) = assay: MIC determination, E. coli animal (1956); format: cell-based; details: Escherichia coli; Gram-negative; Mueller-Hinton medium, 24 h at 37° C.
Experimental: as §1, §2, §3, §4, §5, §6, §7, §8

[4] = test system: S. intermedius Animal (1051997); assay: MIC determination, S. intermedius animal (1051997); format: cell-based; details: Staphylococcus intermedius; Gram-positive; Mueller-Hinton medium, 24 h at 37° C.
Experimental: as §1, §2, §3, §4, §5, §6, §7, §8

[5] = test system: E. faecalis Human ATCC 29212; assay: MIC determination, E. faecalis human ATCC 29212; format: cell-based; details: Enterococcus faecalis, ATCC29212; Gram-positive; Mueller-Hinton medium, 24 h at 37° C.
Experimental: as §1, §2, §3, §4, §5, §6, §7, §8

SMILES	MIC [1] [µg/mL]	MIC (S. aureus Animal (340)) [µg/mL]	MIC [2] [µg/mL]	MIC [3] [µg/mL]	MIC (E. coli Human ATCC 28922) [µg/mL]	synergism when administered with doxycycline (P. aeruginosa (1051575); doxycycline at 2 μg/mL)	MIC - P. aeruginosa (1051575): content of compound of formula (I) to restore the doxycycline activity (at 2 μg/mL) (P. aeruginosa (1051575)) [µg/mL]	IC50 (CHO-K1 cells) [µg/mL]	MIC (E. coli Animal (1956)) [µg/mL]	MIC [4] [µg/mL]	MIC [5] [µg/mL]
CC(C)NC(=O)CC[C@@H](C)[C@H]1CCC2C3CCC4C[C@@H](NCCCNCCCCNCCCN)CC[C@]4(C)C3CC[C@@]21C (stereo partly drawn) [Compound (36), 3β-spermino-N-isopropyllithocholamide]	3.75 (≈ 6.23 µM)	3.75 (≈ 6.23 µM)	30 (≈ 49.8 µM)	15 (≈ 24.9 µM)	7.5 (≈ 12.5 µM)	noteworthy synergism	0.5	36 (≈ 59.8 µM)	15 (≈ 24.9 µM)	1.87 (≈ 3.11 µM)	7.5 (≈ 12.5 µM)
CC(C)NC(=O)CC[C@@H](C)[C@H]1CCC2C3C(CC[C@@]21C)[C@@]1(C)CC[C@H](NCCCNCCCNCCCN)CC1C[C@@H]3O (stereo partly drawn) [(14), 3β-norspermino-N-isopropylursodeoxycholamide]	16 (≈ 26.5 µM)	32 (≈ 53 µM)	128 (≈ 212 µM)	64 (≈ 106 µM)	128 (≈ 212 µM)	–	1	90 (≈ 149 µM)	128 (≈ 212 µM)	4 (≈ 6.62 µM)	128 (≈ 212 µM)
CC(C)NC(=O)CC[C@@H](C)[C@H]1CCC2C3CCC4C[C@@H](NCCCN5CCN(CCCN)CC5)CC[C@]4(C)C3C[C@H](O)[C@@]21C (stereo partly drawn) [(3), 3β-(1,4-bis(3-aminopropyl)piperazine)-N-isopropyldeoxycholamide]	15 (≈ 24.4 µM)	15 (≈ 24.4 µM)	62 (≈ 101 µM)	124 (≈ 201 µM)	124 (≈ 201 µM)	–	2	120 (≈ 195 µM)	> 124	4 (≈ 6.49 µM)	124 (≈ 201 µM)
CNC(=O)CC[C@@H](C)[C@H]1CCC2C3C(CC[C@@]21C)[C@@]1(C)CC[C@H](NCCCNCCCNCCCN)CC1C[C@H]3O (stereo partly drawn) [(10), 3β-norspermino-N-methylchenodeoxycholamide]	7 (≈ 12.2 µM)	1 (≈ 1.74 µM)	5 (≈ 8.68 µM)	28 (≈ 48.6 µM)	14 (≈ 24.3 µM)	–	1	35 (≈ 60.8 µM)	7 (≈ 12.2 µM)	1 (≈ 1.74 µM)	14 (≈ 24.3 µM)
CC(C)NC(=O)CC[C@@H](C)[C@H]1CCC2C3C(C[C@H](O)[C@@]21C)[C@@]1(C)CC[C@H](NCCCN(C)CCCN)CC1C[C@H]3O (stereo partly drawn) [(26), 3β-(bis(3-aminopropyl)methylamine)-N-isopropylcholamide]	28 (≈ 48.5 µM)	28 (≈ 48.5 µM)	56 (≈ 97.1 µM)	112 (≈ 194 µM)	28 (≈ 48.5 µM)	–	4	80 (≈ 139 µM)	56 (≈ 97.1 µM)	14 (≈ 24.3 µM)	56 (≈ 97.1 µM)
CC(C)NC(=O)CC[C@@H](C)[C@H]1CCC2C3C(CC[C@@]21C)[C@@]1(C)CC[C@H](NCCNCCNCCNCCNCCN)CC1C[C@H]3O (stereo partly drawn) [(22), 3β-(pentaethylenehexamine)-N-isopropylchenodeoxycholamide]	8 (≈ 12.3 µM)	8 (≈ 12.3 µM)	65 (≈ 100 µM)	130 (≈ 201 µM)	32 (≈ 49.4 µM)	–	4	120 (≈ 185 µM)	32 (≈ 49.4 µM)	2 (≈ 3.09 µM)	32 (≈ 49.4 µM)
CC(C)NC(=O)CC[C@@H](C)[C@H]1CCC2C3C(CC[C@@]21C)[C@@]1(C)CC[C@H](NCCCN(CCCN)CCCN)CC1C[C@@H]3O (stereo partly drawn) [(48), 3β-(tris(3-aminopropyl)amine)-N-isopropylursodeoxycholamide]	30 (≈ 49.7 µM)	15 (≈ 24.8 µM)	120 (≈ 199 µM)	120 (≈ 199 µM)	> 120	–	4	42 (≈ 69.5 µM)	120 (≈ 199 µM)	8 (≈ 13.2 µM)	60 (≈ 99.3 µM)
CC(C)NC(=O)CC[C@@H](C)[C@H]1CCC2C3CCC4C[C@@H](NCCCN(C)CCCN)CC[C@]4(C)C3CC[C@@]21C (stereo partly drawn) [(29), 3β-(bis(3-aminopropyl)methylamine)-N-isopropyllithocholamide]	14 (≈ 25.7 µM)	14 (≈ 25.7 µM)	112 (≈ 206 µM)	112 (≈ 206 µM)	28 (≈ 51.4 µM)	–	7	6 (≈ 11 µM)	28 (≈ 51.4 µM)	7 (≈ 12.8 µM)	28 (≈ 51.4 µM)
CC(C)NC(=O)CC[C@@H](C)[C@H]1CCC2C3C(C[C@H](O)[C@@]21C)[C@@]1(C)CC[C@H](NCCCN2CCN(CCCN)CC2)CC1C[C@H]3O (some centres unmarked) [(6)]	16 (≈ 25.3 µM)	32 (≈ 50.6 µM)	64 (≈ 101 µM)	218 (≈ 345 µM)	32 (≈ 50.6 µM)	–	8	100 (≈ 158 µM)	64 (≈ 101 µM)	16 (≈ 25.3 µM)	32 (≈ 50.6 µM)
CNC(=O)CC[C@@H](C)[C@H]1CCC2C3C(CC[C@@]21C)[C@@]1(C)CC[C@H](NCCCNCCCCNCCCN)CC1C[C@H]3O (some centres unmarked) [Compound (33)]	3.5 (≈ 5.93 µM)	1 (≈ 1.7 µM)	2 (≈ 3.39 µM)	7 (≈ 11.9 µM)	14 (≈ 23.7 µM)	–	1	35 (≈ 59.3 µM)	7 (≈ 11.9 µM)	0.8 (≈ 1.36 µM)	14 (≈ 23.7 µM)
